Results taken from the supplement of paper PMC10307832.

How the values were obtained:
Assay in all cases: relative viability (nuclei count vs DMSO), 5 days (fraction); higher = more cells survive
[1] = compound: CC1=C(CC(=O)O)c2cc(F)ccc2/C1=C\c1ccc([S+](C)[O-])cc1 [Sulindac] + Nc1nc2[nH]cc(CCc3ccc(C(=O)N[C@@H](CCC(=O)O)C(=O)O)cc3)c2c(=O)[nH]1 [Pemetrexed] (partner 0.2 µM)
Outline: (§1)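 Relative viability equals treated-well nuclei counts divided by vehicle-well nuclei counts. Counts came from 4× images of lung cancer cell lines grown in 1536-well plates for 5 days after pin-tool dosing on the day after seeding. Dosing used one drug alone or a fixed anchor-drug dose plus five library-drug doses (not always all listed) in √10 steps, and values are medians of duplicate plates.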

[2] = compound: O=c1[nH]cc(F)c(=O)[nH]1 [5-Fluorouracil] + Cc1cc(Nc2cc(N3CCN(C)CC3)nc(Sc3ccc(NC(=O)C4CC4)cc3)n2)n[nH]1 [Tozasertib] (partner 0.1 µM)
Outline: as §1

[3] = compound: O=c1[nH]cc(F)c(=O)[nH]1 [5-Fluorouracil] + O=C(c1cc(Cc2n[nH]c(=O)c3ccccc23)ccc1F)N1CCN(C(=O)C2CC2)CC1 [Olaparib] (partner 8 µM)
Outline: as §1

[4] = compound: CC1=C(CC(=O)O)c2cc(F)ccc2/C1=C\c1ccc([S+](C)[O-])cc1 [Sulindac] + O=C(CCCCCCC(=O)Nc1ccccc1)NO [Vorinostat] (partner 1 µM)
Outline: as §1

NCI-H1755
relative viability ([1]; first compound 0.08 µM): 0.421 | relative viability ([1]; first compound 0.253 µM): 0.448 | relative viability ([1]; first compound 0.8 µM): 0.631 | relative viability ([1]; first compound 2.53 µM): 0.444 | relative viability ([1]; first compound 8 µM): 0.462 | relative viability ([2]; first compound 0.02 µM): 0.643 | relative viability ([2]; first compound 0.2 µM): 0.523 | relative viability ([2]; first compound 0.6325 µM): 0.309 | relative viability ([2]; first compound 2 µM): 0.28 | relative viability ([3]; first compound 0.02 µM): 0.817 | relative viability ([3]; first compound 0.2 µM): 0.665 | relative viability ([3]; first compound 0.6325 µM): 0.374 | relative viability ([3]; first compound 2 µM): 0.319 | relative viability ([4]; first compound 0.08 µM): 0.751 | relative viability ([4]; first compound 0.253 µM): 0.772 | relative viability ([4]; first compound 0.8 µM): 0.754 | relative viability ([4]; first compound 2.53 µM): 0.77 | relative viability ([4]; first compound 8 µM): 0.753

A-427
relative viability ([1]; first compound 0.08 µM): 1.01 | relative viability ([1]; first compound 0.253 µM): 1 | relative viability ([1]; first compound 0.8 µM): 0.816 | relative viability ([1]; first compound 2.53 µM): 0.956 | relative viability ([1]; first compound 8 µM): 1.1 | relative viability ([2]; first compound 0.02 µM): 0.181 | relative viability ([2]; first compound 0.6325 µM): 0.189 | relative viability ([2]; first compound 2 µM): 0.159 | relative viability ([3]; first compound 0.02 µM): 0.68 | relative viability ([3]; first compound 0.2 µM): 0.521 | relative viability ([3]; first compound 0.6325 µM): 0.674 | relative viability ([3]; first compound 2 µM): 0.385 | relative viability ([4]; first compound 0.08 µM): 0.829 | relative viability ([4]; first compound 0.253 µM): 0.84 | relative viability ([4]; first compound 0.8 µM): 0.953 | relative viability ([4]; first compound 2.53 µM): 0.84 | relative viability ([4]; first compound 8 µM): 0.995

PC-14
relative viability ([1]; first compound 0.08 µM): 0.122 | relative viability ([1]; first compound 0.253 µM): 0.118 | relative viability ([1]; first compound 0.8 µM): 0.162 | relative viability ([1]; first compound 2.53 µM): 0.13 | relative viability ([1]; first compound 8 µM): 0.147 | relative viability ([2]; first compound 0.02 µM): 0.54 | relative viability ([2]; first compound 0.2 µM): 0.618 | relative viability ([2]; first compound 0.6325 µM): 0.599 | relative viability ([2]; first compound 2 µM): 0.453 | relative viability ([3]; first compound 0.02 µM): 0.277 | relative viability ([3]; first compound 0.2 µM): 0.265 | relative viability ([3]; first compound 0.6325 µM): 0.304 | relative viability ([3]; first compound 2 µM): 0.179 | relative viability ([4]; first compound 0.08 µM): 0.873 | relative viability ([4]; first compound 0.253 µM): 0.9 | relative viability ([4]; first compound 0.8 µM): 0.629 | relative viability ([4]; first compound 2.53 µM): 0.645 | relative viability ([4]; first compound 8 µM): 0.855

LCLC-97TM1
relative viability ([1]; first compound 0.08 µM): 0.205 | relative viability ([1]; first compound 0.253 µM): 0.178 | relative viability ([1]; first compound 0.8 µM): 0.147 | relative viability ([1]; first compound 2.53 µM): 0.177 | relative viability ([1]; first compound 8 µM): 0.198 | relative viability ([2]; first compound 0.02 µM): 0.223 | relative viability ([2]; first compound 0.2 µM): 0.271 | relative viability ([2]; first compound 0.6325 µM): 0.181 | relative viability ([2]; first compound 2 µM): 0.199 | relative viability ([3]; first compound 0.02 µM): 0.334 | relative viability ([3]; first compound 0.2 µM): 0.363 | relative viability ([3]; first compound 0.6325 µM): 0.257 | relative viability ([3]; first compound 2 µM): 0.232 | relative viability ([4]; first compound 0.08 µM): 1.01 | relative viability ([4]; first compound 0.253 µM): 0.86 | relative viability ([4]; first compound 0.8 µM): 0.453 | relative viability ([4]; first compound 2.53 µM): 0.729 | relative viability ([4]; first compound 8 µM): 0.94

BEN
relative viability ([1]; first compound 0.08 µM): 0.816 | relative viability ([1]; first compound 0.253 µM): 0.757 | relative viability ([1]; first compound 0.8 µM): 0.698 | relative viability ([1]; first compound 2.53 µM): 0.706 | relative viability ([1]; first compound 8 µM): 0.998 | relative viability ([2]; first compound 0.02 µM): 0.43 | relative viability ([2]; first compound 0.2 µM): 0.479 | relative viability ([2]; first compound 0.6325 µM): 0.491 | relative viability ([2]; first compound 2 µM): 0.535 | relative viability ([3]; first compound 0.02 µM): 1.01 | relative viability ([3]; first compound 0.2 µM): 0.851 | relative viability ([3]; first compound 0.6325 µM): 0.907 | relative viability ([3]; first compound 2 µM): 0.913 | relative viability ([4]; first compound 0.08 µM): 0.576 | relative viability ([4]; first compound 0.253 µM): 0.57 | relative viability ([4]; first compound 0.8 µM): 0.539 | relative viability ([4]; first compound 2.53 µM): 0.614 | relative viability ([4]; first compound 8 µM): 0.617

NCI-H2085
relative viability ([1]; first compound 0.08 µM): 0.921 | relative viability ([1]; first compound 0.253 µM): 0.903 | relative viability ([1]; first compound 0.8 µM): 0.766 | relative viability ([1]; first compound 2.53 µM): 0.898 | relative viability ([1]; first compound 8 µM): 0.897 | relative viability ([2]; first compound 0.02 µM): 0.867 | relative viability ([2]; first compound 0.2 µM): 0.784 | relative viability ([2]; first compound 0.6325 µM): 0.828 | relative viability ([2]; first compound 2 µM): 0.608 | relative viability ([3]; first compound 0.02 µM): 0.743 | relative viability ([3]; first compound 0.2 µM): 0.784 | relative viability ([3]; first compound 0.6325 µM): 0.693 | relative viability ([3]; first compound 2 µM): 0.677 | relative viability ([4]; first compound 0.08 µM): 0.728 | relative viability ([4]; first compound 0.253 µM): 0.814 | relative viability ([4]; first compound 0.8 µM): 0.77 | relative viability ([4]; first compound 2.53 µM): 0.652 | relative viability ([4]; first compound 8 µM): 0.818

ABC-1
relative viability ([2]; first compound 0.02 µM): 0.163 | relative viability ([2]; first compound 0.2 µM): 0.184 | relative viability ([2]; first compound 0.6325 µM): 0.171 | relative viability ([2]; first compound 2 µM): 0.195 | relative viability ([3]; first compound 0.02 µM): 0.782 | relative viability ([3]; first compound 0.2 µM): 0.716 | relative viability ([3]; first compound 0.6325 µM): 1 | relative viability ([3]; first compound 2 µM): 0.51 | relative viability ([4]; first compound 0.08 µM): 1.01 | relative viability ([4]; first compound 0.253 µM): 1.27 | relative viability ([4]; first compound 0.8 µM): 1.14 | relative viability ([4]; first compound 2.53 µM): 0.74 | relative viability ([4]; first compound 8 µM): 1.09

NCI-H1792
relative viability ([1]; first compound 0.08 µM): 0.867 | relative viability ([1]; first compound 0.253 µM): 0.903 | relative viability ([1]; first compound 2.53 µM): 0.794 | relative viability ([1]; first compound 8 µM): 0.827 | relative viability ([3]; first compound 0.02 µM): 0.467 | relative viability ([3]; first compound 0.2 µM): 0.54 | relative viability ([3]; first compound 0.6325 µM): 0.169 | relative viability ([3]; first compound 2 µM): 0.175

NCI-H1563
relative viability ([1]; first compound 0.08 µM): 0.736 | relative viability ([1]; first compound 0.253 µM): 0.748 | relative viability ([1]; first compound 0.8 µM): 0.683 | relative viability ([1]; first compound 2.53 µM): 0.758 | relative viability ([1]; first compound 8 µM): 0.945

NCI-H727
relative viability ([2]; first compound 0.02 µM): 0.659 | relative viability ([2]; first compound 0.2 µM): 0.646 | relative viability ([2]; first compound 0.6325 µM): 0.691 | relative viability ([2]; first compound 2 µM): 0.571 | relative viability ([3]; first compound 0.02 µM): 0.748 | relative viability ([3]; first compound 0.2 µM): 0.821 | relative viability ([3]; first compound 0.6325 µM): 0.747 | relative viability ([3]; first compound 2 µM): 0.593 | relative viability ([4]; first compound 0.08 µM): 1.35 | relative viability ([4]; first compound 0.253 µM): 1.21 | relative viability ([4]; first compound 0.8 µM): 0.998 | relative viability ([4]; first compound 2.53 µM): 1.18 | relative viability ([4]; first compound 8 µM): 1.24

EBC-1
relative viability ([3]; first compound 0.02 µM): 0.769 | relative viability ([3]; first compound 0.2 µM): 0.772 | relative viability ([3]; first compound 0.6325 µM): 0.759 | relative viability ([3]; first compound 2 µM): 0.44

IA-LM
relative viability ([3]; first compound 0.02 µM): 1 | relative viability ([3]; first compound 0.2 µM): 0.576 | relative viability ([3]; first compound 0.6325 µM): 0.285 | relative viability ([3]; first compound 2 µM): 0.193 | relative viability ([4]; first compound 0.08 µM): 1.07 | relative viability ([4]; first compound 0.253 µM): 1.21 | relative viability ([4]; first compound 2.53 µM): 0.913 | relative viability ([4]; first compound 8 µM): 0.981
